From patent EP0605261B1, “Use of a flavone derivative as taste modifier and a method of modifying taste” (SAN-EI GEN F.F.I., INC., priority 1992, dated 1994)

Tests used:
Assay type in all cases: in vivo
[1] = Sensory test (limiting method): enhancing the sourness of acid sugar solution; parameters: key: (equivalent citric acid content / citric acid content with flavone) × 100; conditions: citric acid 1.000 (g), flavone derivative (I) 0.00001 (g), 8 panellers; for Value of enhancing the sourness Ascending system: ascending system (from low concentration); for Value of enhancing the sourness Descending system: descending system (from high concentration)
Method: Compounds 1 to 11 of the flavone derivative (I) were used as a taste modifier to prepare acid sugar solution having compositions as follows:
As a control, 21 types of acid sugar solutions are used. In the control, the flavone derivative (I) is removed from the above composition and the content of citric acid is varied from 1.000 g to 1.500 g by 0.025 g.
Sensory tests were carried out by 8 trained panellers in accordance with a limiting method described in the Hand Book of Sensory evaluation, edited by Research Committee of sensory evaluation, Union of Japanese Scientists and Engineers, p.398 (1973) in use of acid sugar solutions containing respective flavone derivatives (I) and another acid sugar solutions having a various content of citric acid.
As for the content of citric acid, two types sensory tests were conducted, one was an ascending system (testing from solution with low concentration) and another was a descending system (testing from solution with high concentration).
The sensory evaluation was made by a value of enhancing the sourness. The value of enhancing the sourness was calculated by the following formula based on the content of citric acid in acid sugar solutions with varied concentration of citric acid, which has an equivalent stimulation with an acid sugar solution containing the flavone derivative (I) Value of enhancing the sourness = (content of citric acid in acid sugar solution sensed as an equivalent stimulation/content of citric acid in acid sugar solution containing the flavone derivative (I)) x 100 [formula]

[2] = Sensory test: refreshness, its continuity and quality of taste (hard candy); conditions: 0.1 (w/w)% flavor composition D (0.0001 (g) Compound 1) vs C, 8 panellers
Method: Compound 1 of the flavone derivative (I) was used as a taste modifier. Hard candy containing the above flavor composition C (control) or D (containing the flavone derivative (I)) was prepared.
First, 60 g of sugar, 40 g of thin malt syrup and 20 g of water were mixed and heated up to about 150°C to boil down, and then allowed to cool to about 120 °C while stirring. Next, the above flavor composition C was added thereto such that 0.1 (w/w)% of the flavor composition was contained and it is poured into a box, thereby preparing flavone derivative (I) free hard candy.
Alternatively, the flavor composition D was used in stead of the flavor composition C to prepare flavone derivative (I)-containing hard candy in accordance with the same method.
Sensory tests for obtained hard candy were carried out by 8 panellers comprised of 6 males and 2 females at the age from 20 to 40.

[3] = Sensory test: body and deliciousness (soft candy); conditions: 0.00001 (g) Compound 1, 8 panellers
Method: Compound 1 of the flavone derivative (I) was used as a taste modifier. Gelatin which was swelled in advance with a part of water, followed by heating to dissolve, granulated sugar, thick malt syrup and the remaining water was mixed, followed by boiling down to 130°C. Then, fondant paste, vegetable oils and fats, emulsifier, colorant and the flavone derivative (I) were added thereto, thereby preparing flavone derivative (I)-containing soft candy. Alternatively, flavone derivative (I) free soft candy was prepared as a control by the same method.
Sensory tests for obtained soft candy were conducted by 8 panellers comprised of 6 males and 2 females at the age from 20 to 40.

[4] = Five points evaluation test: saltiness and brackish taste modifying effect (soy sauce with low salt concentration); parameters: key: five-point scale; additive-free standard solution scored 2; conditions: average points of 5 panellers (2: no changes)
Method: Compound 5 of the flavone derivative (I) was used as a taste modifier. To commercially available soy sauce with low salt concentration (salt concentration: 7 w/w%), 1, 0.1 and 0.01 ppm of the flavone derivative (I) was added respectively to prepare sample solutions. Sensory tests were carried out for the respective concentrations of sample solutions and 1/2 diluted solutions thereof. Flavone derivative (I) free solutions were used as standard solutions.
The sensory tests were conducted by 5 trained panellers to examine saltiness modifying effect (so called saltiness adapting effect) and brackish taste modifying effect.
(§1) Each sample solution was evaluated assuming that the standard solution has the point of 2.

[5] = Five points evaluation test: saltiness and savor modifying effect (salted squid); parameters: key: five-point scale; untreated standard scored 2; conditions: average points of 5 panellers (2: no changes)
Method: Compound 5 of the flavone derivative (I) was used as a taste modifier. To commercially available salted squids, 1, 0.1 and 0.01 ppm of the flavone derivative (I) was added respectively to prepare samples. Sensory tests were carried out for the saltiness and the savor of salted squid. Flavone derivative (I) free salted squids were used as standards.
(§2) The sensory tests were conducted by 5 trained panellers to examine saltiness modifying effect (so called saltiness adapting effect) and savor modifying effect.
as §1

[6] = Sensory test: body and deliciousness (bread); conditions: 0.00002 (g) Compound 5, 8 panellers
Method: Compound 5 of the flavone derivative (I) was used as a taste modifier. Strong flour, yeast food, bread yeast and water were mixed and fermented for four hours at 28°C. Dough materials comprising strong flour, sugar, powdered skim milk, shortening and water, and the flavone derivative (I) were added thereto and subjected to dough process, followed by baking for 25 minutes at 220°C, thereby preparing bread. Flavone derivative (I) free bread was prepared in the same manner as a control.
Sensory tests for obtained bread were conducted by 8 panellers comprised of 6 males and 2 females at the age from 20 to 40.

[7] = Five points evaluation test: saltiness and savor modifying effect (ham made of pork loin); conditions: Ham made of pork loint, average points of 5 panellers (2: no changes)
Method: Compound 6 of the flavone derivative (I) were used as a taste modifier. Ham made of pork loin was prepared by a general method, in use of pickle solutions containing the flavone derivative (I) in the amount of 1, 0.1 and 0.01 ppm and flavone derivative (I) free standard pickle solution, respectively. Sensory tests were carried out for modifying effects of the saltiness and the savor.
as §2, §1
The pickle solution containing the above was prepared and cooled for a night. Then, raw meat (native pork) was molded and the pickle solution was injected at a rate of 120% to the molded meat. After injection, the molded meat was tumbled with tumbler (12 R. P. M./60 minutes) and salted for a night. It was packed in a container and subjected to dry at 60°C for 60 minutes, smoke at 70°C for 40 minutes and steam at 78°C (the temperature of the center raised to 70°C) to finish the processing. The processed meat was cooled for a night and evaluated.

[8] = Sensory test: refreshness, its continuity and quality of taste (mouth refreshing agent); conditions: 0.1 (w/w)% flavor composition F (0.00005 (g) Compound 9) vs E, 8 panellers
Method: Compound 9 of the flavone derivative (I) was used as a taste modifier. Mouth refreshing agent comprising the above flavor composition E (control) or F (containing the flavone derivative (I)) was prepared.
First, 30 g of ethanol, 10 g of glycerin, 2 g of polyoxyethylene hardened castor oil, 0.1 g of sodium saccharin, 0.005 g of chlorhexidine and 58 g of water were mixed, and the above flavor composition E was added thereto such that 0.1 (w/w)% of the flavor compositon was contained, thereby preparing flavone derivative (I) free mouth refreshing agent. Alternatively, the flavor composition F was used in stead of the flavor composition E to prepare flavone derivative (I)-containing mouth refreshing agent.
Sensory tests for obtained mouth refreshing agents were carried out by 8 panellers comprised of 6 males and 2 females at the age from 20 to 40.

[9] = 0.01 ppm, Soy sauce 1/2 dilution
[10] = 0.01 ppm, Soy sauce Undiluted solution
[11] = 0.10 ppm, Soy sauce 1/2 dilution
[12] = 0.10 ppm, Soy sauce Undiluted solution
[13] = 1.00 ppm, Soy sauce 1/2 dilution
[14] = 1.00 ppm, Soy sauce Undiluted solution

With COc1ccc(-c2cc(=O)c3c(OC)c(OC)c(OC)cc3o2)cc1OC [Compound 1, 3',4',5,6,7-pentamethoxyflavone] the “Value of enhancing the sourness Ascending system” value [1] was 119, the “Value of enhancing the sourness Descending system” value [1] was 121 and the “Continuity of the refreshness: Those who sensed D additive is better” value [2] was 8 number of people. For the same compound, the “Continuity of the refreshness: Those who sensed no difference” value [2] was 0 number of people, the “Quality of taste: Those who sensed D additive is better” value [2] was 6 number of people and the “Quality of taste: Those who sensed no difference” value [2] was 2 number of people. The “Refreshness: Those who sensed D additive is better” value [2] was 7 number of people, the “Refreshness: Those who sensed no difference” value [2] was 1 number of people and the “Body: Those who sensed no difference” value [3] was 1 number of people. The “Body: Those who sensed the flavone derivative (I) additive is better” value [3] was 7 number of people, the “Deliciousness: Those who sensed no difference” value [3] was 0 number of people and the “Deliciousness: Those who sensed the flavone derivative (I) additive is better” value [3] was 8 number of people. For the same compound, the “Quality of taste: Those who sensed no difference” value [3] was 0 number of people and the “Quality of taste: Those who sensed the flavone derivative (I) additive is better” value [3] was 8 number of people.
With COc1cc(OC)c2c(=O)cc(-c3ccc(OC)c(OC)c3)oc2c1 [Compound 5, 3',4',5,7-tetramethoxyflavone] the “Value of enhancing the sourness Ascending system” value [1] was 118, the “Value of enhancing the sourness Descending system” value [1] was 121 and the “Brackish Taste Modifying Effect” value [4, 9] was 3.6. The “Saltiness Modifying Effect” value [4, 9] was 3.8, the “Brackish Taste Modifying Effect” value [4, 10] was 3.4 and the “Saltiness Modifying Effect” value [4, 10] was 3.6. For the same compound, the “Brackish Taste Modifying Effect” value [4, 11] was 4.0, the “Saltiness Modifying Effect” value [4, 11] was 4.0 and the “Brackish Taste Modifying Effect” value [4, 12] was 3.4. The “Saltiness Modifying Effect” value [4, 12] was 3.6, the “Brackish Taste Modifying Effect” value [4, 13] was 4.0 and the “Saltiness Modifying Effect” value [4, 13] was 4.4. For the same compound, the “Brackish Taste Modifying Effect” value [4, 14] was 4.0, the “Saltiness Modifying Effect” value [4, 14] was 4.0 and the “Saltiness and Savor Modifying Effect: Saltiness” value ([5]; 0.01 ppm) was 3.0. The “Saltiness and Savor Modifying Effect: Savor” value ([5]; 0.01 ppm) was 3.6, the “Saltiness and Savor Modifying Effect: Total evaluation” value ([5]; 0.01 ppm) was 3.4 and the “Saltiness and Savor Modifying Effect: Saltiness” value ([5]; 0.10 ppm) was 3.4. For the same compound, the “Saltiness and Savor Modifying Effect: Savor” value ([5]; 0.10 ppm) was 3.8, the “Saltiness and Savor Modifying Effect: Total evaluation” value ([5]; 0.10 ppm) was 3.6 and the “Saltiness and Savor Modifying Effect: Saltiness” value ([5]; 1.00 ppm) was 3.8. For the same compound, the “Saltiness and Savor Modifying Effect: Savor” value ([5]; 1.00 ppm) was 4.0, the “Saltiness and Savor Modifying Effect: Total evaluation” value ([5]; 1.00 ppm) was 3.8 and the “Body: Those who sensed no difference” value [6] was 1 number of people. The “Body: Those who sensed the flavone derivative (I) additive is better” value [6] was 7 number of people, the “Deliciousness: Those who sensed no difference” value [6] was 2 number of people and the “Deliciousness: Those who sensed the flavone derivative (I) additive is better” value [6] was 6 number of people. The “Quality of taste: Those who sensed no difference” value [6] was 1 number of people and the “Quality of taste: Those who sensed the flavone derivative (I) additive is better” value [6] was 7 number of people.
In the case of COc1ccc(-c2cc(=O)c3c(OC)cc(OC)c(OC)c3o2)cc1 [Compound 6, 5,7,8,4'-tetramethoxyflavone], the “Value of enhancing the sourness Ascending system” value [1] was 120, the “Value of enhancing the sourness Descending system” value [1] was 123 and the “Saltiness and Savor Modifying Effect: Saltiness” value ([7]; 0.10 ppm in pickle solution) was 3.0. For the same compound, the “Saltiness and Savor Modifying Effect: Savor” value ([7]; 0.10 ppm in pickle solution) was 3.0, the “Saltiness and Savor Modifying Effect: Total evaluation” value ([7]; 0.10 ppm in pickle solution) was 3.0 and the “Saltiness and Savor Modifying Effect: Saltiness” value ([7]; 1.00 ppm in pickle solution) was 3.4. The “Saltiness and Savor Modifying Effect: Savor” value ([7]; 1.00 ppm in pickle solution) was 3.4 and the “Saltiness and Savor Modifying Effect: Total evaluation” value ([7]; 1.00 ppm in pickle solution) was 3.4.
In the case of COc1ccc(-c2cc(=O)c3c(O)c(OC)c(OC)c(OC)c3o2)cc1 [Compound 9, 5-hydroxy-4',6,7,8-tetramethoxyflavone], the “Value of enhancing the sourness Ascending system” value [1] was 117, the “Value of enhancing the sourness Descending system” value [1] was 119 and the “Continuity of refreshness: Those who sensed F additive is better” value [8] was 8 number of people. For the same compound, the “Continuity of refreshness: Those who sensed no difference” value [8] was 0 number of people, the “Quality of taste: Those who sensed F additive is better” value [8] was 6 number of people and the “Quality of taste: Those who sensed no difference” value [8] was 2 number of people. The “Refreshness: Those who sensed F additive is better” value [8] was 7 number of people and the “Refreshness: Those who sensed no difference” value [8] was 1 number of people.
